Measurements taken from PubChem BioAssay (NCI).
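Five concentrations, 48 hours, 96-well plates. At the GI50, growth is halved. TGI denotes the concentration required for complete inhibition of growth.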

Legend:
Experiment in all cases: DTP human tumour cell line panel, 48 h
HOP-92 NSCLC = system: HOP-92 NSCLC
UACC-62 melanoma = system: UACC-62 melanoma
OVCAR-3 ovarian = system: OVCAR-3 ovarian
A498 renal = system: A498 renal
OVCAR-5 ovarian = system: OVCAR-5 ovarian
SF-295 CNS = system: SF-295 CNS
RPMI-8226 leukemia = system: RPMI-8226 leukemia
MCF7 breast = system: MCF7 breast
A549 NSCLC = system: A549 NSCLC
SF-268 CNS = system: SF-268 CNS
HT29 colon = system: HT29 colon
HCT-116 colon = system: HCT-116 colon
M14 melanoma = system: M14 melanoma
DU-145 prostate = system: DU-145 prostate
LOX IMVI melanoma = system: LOX IMVI melanoma
PC-3 prostate = system: PC-3 prostate
CCRF-CEM leukemia = system: CCRF-CEM leukemia
NCI-H23 lung = system: NCI-H23 lung
K-562 leukemia = system: K-562 leukemia
HCT-15 colon = system: HCT-15 colon
KM12 colon = system: KM12 colon
SK-MEL-28 melanoma = system: SK-MEL-28 melanoma
HS 578T breast = system: HS 578T breast
OVCAR-4 ovarian = system: OVCAR-4 ovarian
CAKI-1 renal = system: CAKI-1 renal
UO-31 renal = system: UO-31 renal
T-47D breast = system: T-47D breast
HOP-62 NSCLC = system: HOP-62 NSCLC
SNB-75 CNS = system: SNB-75 CNS
SF-539 CNS = system: SF-539 CNS
OVCAR-8 ovarian = system: OVCAR-8 ovarian
SN12C renal = system: SN12C renal
HL-60(TB) leukemia = system: HL-60(TB) leukemia
HCC-2998 colon = system: HCC-2998 colon
SK-MEL-2 melanoma = system: SK-MEL-2 melanoma
SK-OV-3 ovarian = system: SK-OV-3 ovarian
NCI-H226 lung = system: NCI-H226 lung
ACHN renal = system: ACHN renal
MDA-MB-435 = system: MDA-MB-435
U251 CNS = system: U251 CNS
SW-620 colon = system: SW-620 colon
BT-549 breast = system: BT-549 breast
MDA-MB-231 breast = system: MDA-MB-231 breast
SR leukemia = system: SR leukemia
UACC-257 melanoma = system: UACC-257 melanoma
MOLT-4 leukemia = system: MOLT-4 leukemia
COLO 205 colon = system: COLO 205 colon
IGROV1 ovarian = system: IGROV1 ovarian
SK-MEL-5 melanoma = system: SK-MEL-5 melanoma
SNB-19 CNS = system: SNB-19 CNS
RXF 393 renal = system: RXF 393 renal
NCI/ADR-RES ovarian = system: NCI/ADR-RES ovarian
NCI-H460 lung = system: NCI-H460 lung
MDA-MB-468 breast = system: MDA-MB-468 breast
TK-10 renal = system: TK-10 renal
MALME-3M melanoma = system: MALME-3M melanoma
EKVX NSCLC = system: EKVX NSCLC
NCI-H522 lung = system: NCI-H522 lung
786-0 renal = system: 786-0 renal

CCOP(=O)(OCC)O[C@H]1CC[C@]2(C)[C@H]3CC[C@@H]4[C@@H]([C@](C)(O)CCC=C(C)C)CC[C@@]4(C)[C@]3(C)CC[C@H]2C1(C)C showed a GI50 (HOP-92 NSCLC) of 10.3 µM, a TGI (HOP-92 NSCLC) of 23.4 µM and a GI50 (UACC-62 melanoma) of 10.7 µM. For the same molecule, the TGI (UACC-62 melanoma) was 22.6 µM, the GI50 (OVCAR-3 ovarian) was 13.5 µM and the TGI (OVCAR-3 ovarian) was 27.2 µM. The GI50 (A498 renal) was 12.4 µM, the TGI (A498 renal) was 25.1 µM and the GI50 (OVCAR-5 ovarian) was 12.7 µM. For the same molecule, the TGI (OVCAR-5 ovarian) was 25.2 µM, the GI50 (SF-295 CNS) was 12.4 µM and the TGI (SF-295 CNS) was 24.8 µM. For the same molecule, the GI50 (RPMI-8226 leukemia) was 3.02 µM, the TGI (RPMI-8226 leukemia) was 17.5 µM and the GI50 (MCF7 breast) was 7.26 µM. For the same molecule, the TGI (MCF7 breast) was 20.5 µM, the GI50 (A549 NSCLC) was 12.6 µM and the TGI (A549 NSCLC) was 30.3 µM. It also gave a GI50 (SF-268 CNS) of 12.7 µM, a TGI (SF-268 CNS) of 30.9 µM and a GI50 (HT29 colon) of 7.35 µM. The TGI (HT29 colon) was 23.2 µM, the GI50 (HCT-116 colon) was 5.91 µM and the TGI (HCT-116 colon) was 21.7 µM. It also gave a GI50 (M14 melanoma) of 14.9 µM, a TGI (M14 melanoma) of 35 µM and a GI50 (DU-145 prostate) of 14.8 µM. It also gave a TGI (DU-145 prostate) of 30.4 µM, a GI50 (LOX IMVI melanoma) of 12.7 µM and a TGI (LOX IMVI melanoma) of 25.2 µM. For the same molecule, the GI50 (PC-3 prostate) was 3.45 µM, the TGI (PC-3 prostate) was 17 µM and the GI50 (CCRF-CEM leukemia) was 11.5 µM. The TGI (CCRF-CEM leukemia) was 29.3 µM, the GI50 (NCI-H23 lung) was 10.1 µM and the TGI (NCI-H23 lung) was 21.7 µM. The GI50 (K-562 leukemia) was 6.99 µM, the TGI (K-562 leukemia) was 98.8 µM and the GI50 (HCT-15 colon) was 10.7 µM. The TGI (HCT-15 colon) was 22.4 µM, the GI50 (KM12 colon) was 15.4 µM and the TGI (KM12 colon) was 33.2 µM. It also gave a GI50 (SK-MEL-28 melanoma) of 12.9 µM, a TGI (SK-MEL-28 melanoma) of 25.8 µM and a GI50 (HS 578T breast) of 11.5 µM. It also gave a TGI (HS 578T breast) of 31.8 µM, a GI50 (OVCAR-4 ovarian) of 13.4 µM and a TGI (OVCAR-4 ovarian) of 32 µM. For the same molecule, the GI50 (CAKI-1 renal) was 10.3 µM, the TGI (CAKI-1 renal) was 22.8 µM and the GI50 (UO-31 renal) was 10.1 µM. The TGI (UO-31 renal) was 21.6 µM, the GI50 (T-47D breast) was 7.62 µM and the TGI (T-47D breast) was 25.2 µM. For the same molecule, the GI50 (HOP-62 NSCLC) was 14.1 µM, the TGI (HOP-62 NSCLC) was 29.5 µM and the GI50 (SNB-75 CNS) was 7.02 µM. For the same molecule, the TGI (SNB-75 CNS) was 22.4 µM, the GI50 (SF-539 CNS) was 13.2 µM and the TGI (SF-539 CNS) was 25.8 µM. It also gave a GI50 (OVCAR-8 ovarian) of 13.2 µM, a TGI (OVCAR-8 ovarian) of 30.8 µM and a GI50 (SN12C renal) of 11.8 µM. It also gave a TGI (SN12C renal) of 24 µM, a GI50 (HL-60(TB) leukemia) of 8.49 µM and a TGI (HL-60(TB) leukemia) of 33.2 µM. It also gave a GI50 (HCC-2998 colon) of 13.4 µM, a TGI (HCC-2998 colon) of 26 µM and a GI50 (SK-MEL-2 melanoma) of 13.2 µM. It also gave a TGI (SK-MEL-2 melanoma) of 26.9 µM, a GI50 (SK-OV-3 ovarian) of 12.3 µM and a TGI (SK-OV-3 ovarian) of 27 µM. It also gave a GI50 (NCI-H226 lung) of 11.8 µM, a TGI (NCI-H226 lung) of 25.3 µM and a GI50 (ACHN renal) of 12.5 µM. It also gave a TGI (ACHN renal) of 25 µM, a GI50 (MDA-MB-435) of 12.8 µM and a TGI (MDA-MB-435) of 27.1 µM. The GI50 (U251 CNS) was 11.8 µM, the TGI (U251 CNS) was 28.4 µM and the GI50 (SW-620 colon) was 13.2 µM. For the same molecule, the TGI (SW-620 colon) was 27.4 µM, the GI50 (BT-549 breast) was 14.9 µM and the TGI (BT-549 breast) was 29.1 µM. For the same molecule, the GI50 (MDA-MB-231 breast) was 11.5 µM, the TGI (MDA-MB-231 breast) was 23.7 µM and the GI50 (SR leukemia) was 3.12 µM. The TGI (SR leukemia) was 98.8 µM, the GI50 (UACC-257 melanoma) was 12.4 µM and the TGI (UACC-257 melanoma) was 27.3 µM. The GI50 (MOLT-4 leukemia) was 8.07 µM, the TGI (MOLT-4 leukemia) was 29.1 µM and the GI50 (COLO 205 colon) was 12.4 µM. The TGI (COLO 205 colon) was 29.5 µM, the GI50 (IGROV1 ovarian) was 13.8 µM and the TGI (IGROV1 ovarian) was 27.5 µM. The GI50 (SK-MEL-5 melanoma) was 10.4 µM, the TGI (SK-MEL-5 melanoma) was 22.2 µM and the GI50 (SNB-19 CNS) was 13.4 µM. The TGI (SNB-19 CNS) was 26.1 µM, the GI50 (RXF 393 renal) was 6.45 µM and the TGI (RXF 393 renal) was 19.5 µM. For the same molecule, the GI50 (NCI/ADR-RES ovarian) was 14.7 µM, the TGI (NCI/ADR-RES ovarian) was 28.5 µM and the GI50 (NCI-H460 lung) was 12.9 µM. For the same molecule, the TGI (NCI-H460 lung) was 27.6 µM, the GI50 (MDA-MB-468 breast) was 5.1 µM and the TGI (MDA-MB-468 breast) was 18.2 µM. It also gave a GI50 (TK-10 renal) of 13.5 µM, a TGI (TK-10 renal) of 27.7 µM and a GI50 (MALME-3M melanoma) of 11.7 µM. For the same molecule, the TGI (MALME-3M melanoma) was 24 µM, the GI50 (EKVX NSCLC) was 10.1 µM and the TGI (EKVX NSCLC) was 21.6 µM. The GI50 (NCI-H522 lung) was 11.5 µM, the TGI (NCI-H522 lung) was 25.9 µM and the GI50 (786-0 renal) was 11.9 µM. The TGI (786-0 renal) was 28.3 µM.
